Assay results from patent publication US9738634B2, “Heterocyclic amide compound and herbicide” (SYNGENTA PARTICIPATIONS AG, priority 2013, dated 2017).

How the values were obtained:
Type in all cases: in vivo
Italian ryegrass = experiment: Test Example 3: weedkilling efficacy through soil treatment; I: Italian ryegrass; settings: soil treatment, treatment dosage 320 g/ha
Method in brief: (§1)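 Crop and weed responses were judged three weeks after a uniform surface spray of the water-diluted emulsion at the given g/ha rate. Seeds sat beneath about 1.5 cm of sterilized diluvial soil, and boxes stood in a greenhouse at 25 to 30° C.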

wheat = experiment: Test Example 3: soil treatment, effect on crop; e: wheat; settings: soil treatment, treatment dosage 320 g/ha
Method in brief: as §1

oval-leafed pondweed [1] = experiment: Test Example 2: weedkilling efficacy, growth period weed treatment in the submerged state; C: oval-leafed pondweed; settings: treatment dosage 320 g/ha
Method in brief: (§2)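 Barnyard grass, bulrush and oval-leafed pondweed sown in alluvial soil under 4 cm flooding, greenhouse 25 to 30° C. At 1-2 leaf stage, water-diluted emulsion applied to the water surface at stated g/ha dosages; effects scored 3 weeks later.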

redroot pigweed = experiment: Test Example 3: weedkilling efficacy through soil treatment; L: redroot pigweed; settings: soil treatment, treatment dosage 320 g/ha
Method in brief: as §1

green foxtail = experiment: Test Example 3: weedkilling efficacy through soil treatment; E: green foxtail; settings: soil treatment, treatment dosage 320 g/ha
Method in brief: as §1

wild oat = experiment: Test Example 3: weedkilling efficacy through soil treatment; G: wild oat; settings: soil treatment, treatment dosage 320 g/ha
Method in brief: as §1

catchweed = experiment: Test Example 3: weedkilling efficacy through soil treatment; O: catchweed; settings: soil treatment, treatment dosage 320 g/ha
Method in brief: as §1

bulrush [2] = experiment: Test Example 2: weedkilling efficacy, growth period weed treatment in the submerged state; B: bulrush; settings: treatment dosage 320 g/ha
Method in brief: as §2

bulrush [3] = experiment: Test Example 1: weedkilling efficacy, preemergent weed treatment in the submerged state; B: bulrush; settings: treatment dosage 320 g/ha
Method in brief: (§3)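 Pots of alluvial soil flooded 4 cm deep, sown with barnyard grass, bulrush and oval-leafed pondweed and transplanted with 2.5-leaf rice. Emulsified compound applied to the water surface on sowing day at stated g/ha; greenhouse 25–30 °C, effects assessed 3 weeks after treatment.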

crabgrass = experiment: Test Example 3: weedkilling efficacy through soil treatment; D: crabgrass; settings: soil treatment, treatment dosage 320 g/ha
Method in brief: as §1

directly sown rice = experiment: Test Example 3: soil treatment, effect on crop; b: directly sown rice; settings: soil treatment, treatment dosage 320 g/ha
Method in brief: as §1

common wind-grass = experiment: Test Example 3: weedkilling efficacy through soil treatment; J: common wind-grass; settings: soil treatment, treatment dosage 320 g/ha
Method in brief: as §1

Indian mallow = experiment: Test Example 3: weedkilling efficacy through soil treatment; K: Indian mallow; settings: soil treatment, treatment dosage 320 g/ha
Method in brief: as §1

transplanted rice = experiment: Test Example 1: preemergent weed treatment in the submerged state, effect on crop; a: transplanted rice; settings: treatment dosage 320 g/ha
Method in brief: as §3

barnyard grass [4] = experiment: Test Example 3: weedkilling efficacy through soil treatment; F: barnyard grass; settings: soil treatment, treatment dosage 320 g/ha
Method in brief: as §1

barnyard grass [5] = experiment: Test Example 1: weedkilling efficacy, preemergent weed treatment in the submerged state; A: barnyard grass; settings: treatment dosage 320 g/ha
Method in brief: as §3

barnyard grass [6] = experiment: Test Example 2: weedkilling efficacy, growth period weed treatment in the submerged state; A: barnyard grass; settings: treatment dosage 320 g/ha
Method in brief: as §2

rapeseed = experiment: Test Example 3: soil treatment, effect on crop; g: rapeseed; settings: soil treatment, treatment dosage 320 g/ha
Method in brief: as §1

beet = experiment: Test Example 3: soil treatment, effect on crop; f: beet; settings: soil treatment, treatment dosage 320 g/ha
Method in brief: as §1

fig-leafed goosefoot = experiment: Test Example 3: weedkilling efficacy through soil treatment; M: fig-leafed goosefoot; settings: soil treatment, treatment dosage 320 g/ha
Method in brief: as §1

corn = experiment: Test Example 3: soil treatment, effect on crop; c: corn; settings: soil treatment, treatment dosage 320 g/ha
Method in brief: as §1

oval-leafed pondweed [7] = experiment: Test Example 1: weedkilling efficacy, preemergent weed treatment in the submerged state; C: oval-leafed pondweed; settings: treatment dosage 320 g/ha
Method in brief: as §3

soybean = experiment: Test Example 3: soil treatment, effect on crop; d: soybean; settings: soil treatment, treatment dosage 320 g/ha
Method in brief: as §1

chickweed = experiment: Test Example 3: weedkilling efficacy through soil treatment; N: chickweed; settings: soil treatment, treatment dosage 320 g/ha
Method in brief: as §1

black-grass = experiment: Test Example 3: weedkilling efficacy through soil treatment; H: black-grass; settings: soil treatment, treatment dosage 320 g/ha
Method in brief: as §1

birds-eye speedwell = experiment: Test Example 3: weedkilling efficacy through soil treatment; p: birds-eye speedwell; settings: soil treatment, treatment dosage 320 g/ha
Method in brief: as §1

Compound | I: Italian ryegrass, weedkilling efficacy grade (Italian ryegrass) | e: wheat, effect on crop grade (wheat) | C (oval-leafed pondweed) weedkilling efficacy grade (oval-leafed pondweed [1]) | L: redroot pigweed, weedkilling efficacy grade (redroot pigweed) | E: green foxtail, weedkilling efficacy grade (green foxtail) | G: wild oat, weedkilling efficacy grade (wild oat) | O: catchweed, weedkilling efficacy grade (catchweed) | B (bulrush) weedkilling efficacy grade (bulrush [2]) | B: bulrush, weed kill grade (bulrush [3]) | D: crabgrass, weedkilling efficacy grade (crabgrass) | b: directly sown rice, effect on crop grade (directly sown rice) | J: common wind-grass, weedkilling efficacy grade (common wind-grass) | K: Indian mallow, weedkilling efficacy grade (Indian mallow) | a: transplanted rice, effect on crop grade (transplanted rice) | F: barnyard grass, weedkilling efficacy grade (barnyard grass [4]) | A: barnyard grass, weed kill grade (barnyard grass [5]) | A (barnyard grass) weedkilling efficacy grade (barnyard grass [6]) | g: rapeseed, effect on crop grade (rapeseed) | f: beet, effect on crop grade (beet) | M: fig-leafed goosefoot, weedkilling efficacy grade (fig-leafed goosefoot) | further results
COc1cc(F)nc(NC(=O)C(C)(C)N2COCN(c3ccccc3)C2=O)c1 [A-2-23] | 5 (weed kill ratio 90% or more, (practically complete withering)) | 0 (weed kill ratio 5% or less (practically no effect)) | 5 (weed kill ratio 90% or more, (practically complete withering)) | 0 (weed kill ratio 5% or less (practically no effect)) | 5 (weed kill ratio 90% or more, (practically complete withering)) | 4 (weed kill ratio 70% or more, less than 90%) | 4 (weed kill ratio 70% or more, less than 90%) | 5 (weed kill ratio 90% or more, (practically complete withering)) | 5 (weed kill ratio 90% or more, (practically complete withering)) | 5 (weed kill ratio 90% or more, (practically complete withering)) | 5 (weed kill ratio 90% or more, (practically complete withering)) | 5 (weed kill ratio 90% or more, (practically complete withering)) | 0 (weed kill ratio 5% or less (practically no effect)) | 3 (weed kill ratio 40% or more, less than 70%) | 5 (weed kill ratio 90% or more, (practically complete withering)) | 5 (weed kill ratio 90% or more, (practically complete withering)) | 5 (weed kill ratio 90% or more, (practically complete withering)) | 4 (weed kill ratio 70% or more, less than 90%) | 3 (weed kill ratio 40% or more, less than 70%) | 4 (weed kill ratio 70% or more, less than 90%) | c: corn, effect on crop grade (corn): 0 (weed kill ratio 5% or less (practically no effect)); C: oval-leafed pondweed, weed kill grade (oval-leafed pondweed [7]): 5 (weed kill ratio 90% or more, (practically complete withering)); d: soybean, effect on crop grade (soybean): 0 (weed kill ratio 5% or less (practically no effect)); N: chickweed, weedkilling efficacy grade (chickweed): 4 (weed kill ratio 70% or more, less than 90%); H: black-grass, weedkilling efficacy grade (black-grass): 5 (weed kill ratio 90% or more, (practically complete withering)); P: birds-eye speedwell, weedkilling efficacy grade (birds-eye speedwell): 5 (weed kill ratio 90% or more, (practically complete withering))
CC(C)(C(=O)Nc1cc(C2CC2)cc(Cl)n1)N1COCN(c2ccccc2)C1=O [A-2-30] | 5 (weed kill ratio 90% or more, (practically complete withering)) | 1 (weed kill ratio 5% or more, less than 20%) | 5 (weed kill ratio 90% or more, (practically complete withering)) | 0 (weed kill ratio 5% or less (practically no effect)) | 5 (weed kill ratio 90% or more, (practically complete withering)) | 4 (weed kill ratio 70% or more, less than 90%) | 0 (weed kill ratio 5% or less (practically no effect)) | 5 (weed kill ratio 90% or more, (practically complete withering)) | 5 (weed kill ratio 90% or more, (practically complete withering)) | 5 (weed kill ratio 90% or more, (practically complete withering)) | 3 (weed kill ratio 40% or more, less than 70%) | 5 (weed kill ratio 90% or more, (practically complete withering)) | 0 (weed kill ratio 5% or less (practically no effect)) | 1 (weed kill ratio 5% or more, less than 20%) | 5 (weed kill ratio 90% or more, (practically complete withering)) | 5 (weed kill ratio 90% or more, (practically complete withering)) | 5 (weed kill ratio 90% or more, (practically complete withering)) | 4 (weed kill ratio 70% or more, less than 90%) | 3 (weed kill ratio 40% or more, less than 70%) | 3 (weed kill ratio 40% or more, less than 70%) | c: corn, effect on crop grade (corn): 0 (weed kill ratio 5% or less (practically no effect)); C: oval-leafed pondweed, weed kill grade (oval-leafed pondweed [7]): 5 (weed kill ratio 90% or more, (practically complete withering)); d: soybean, effect on crop grade (soybean): 0 (weed kill ratio 5% or less (practically no effect)); N: chickweed, weedkilling efficacy grade (chickweed): 3 (weed kill ratio 40% or more, less than 70%); H: black-grass, weedkilling efficacy grade (black-grass): 5 (weed kill ratio 90% or more, (practically complete withering)); P: birds-eye speedwell, weedkilling efficacy grade (birds-eye speedwell): 4 (weed kill ratio 70% or more, less than 90%)
CC(C)(C(=O)Nc1cc(Cl)cc(-c2ccccc2)n1)N1COCN(c2ccccc2)C1=O [A-2-31] | 1 (weed kill ratio 5% or more, less than 20%) | 0 (weed kill ratio 5% or less (practically no effect)) | 4 (weed kill ratio 70% or more, less than 90%) | 0 (weed kill ratio 5% or less (practically no effect)) | 2 (weed kill ratio 20% or more, less than 40%) | 2 (weed kill ratio 20% or more, less than 40%) | 3 (weed kill ratio 40% or more, less than 70%) | 5 (weed kill ratio 90% or more, (practically complete withering)) | 5 (weed kill ratio 90% or more, (practically complete withering)) | 2 (weed kill ratio 20% or more, less than 40%) | 0 (weed kill ratio 5% or less (practically no effect)) | 4 (weed kill ratio 70% or more, less than 90%) | 0 (weed kill ratio 5% or less (practically no effect)) | 0 (weed kill ratio 5% or less (practically no effect)) | 2 (weed kill ratio 20% or more, less than 40%) | 5 (weed kill ratio 90% or more, (practically complete withering)) | 5 (weed kill ratio 90% or more, (practically complete withering)) | 0 (weed kill ratio 5% or less (practically no effect)) | 0 (weed kill ratio 5% or less (practically no effect)) | 2 (weed kill ratio 20% or more, less than 40%) | c: corn, effect on crop grade (corn): 0 (weed kill ratio 5% or less (practically no effect)); C: oval-leafed pondweed, weed kill grade (oval-leafed pondweed [7]): 5 (weed kill ratio 90% or more, (practically complete withering)); d: soybean, effect on crop grade (soybean): 0 (weed kill ratio 5% or less (practically no effect)); N: chickweed, weedkilling efficacy grade (chickweed): 3 (weed kill ratio 40% or more, less than 70%); H: black-grass, weedkilling efficacy grade (black-grass): 3 (weed kill ratio 40% or more, less than 70%); P: birds-eye speedwell, weedkilling efficacy grade (birds-eye speedwell): 3 (weed kill ratio 40% or more, less than 70%)
